Laboratory results as given in publication PMC8315060, “N-terminus-independent activation of c-Src via binding to a tetraspan(in) TM4SF5 in hepatocellular carcinoma is abolished by the TM4SF5 C-terminal peptide application” (Theranostics, 2021).
Where a SMILES comes first, the peptide text is derived from it.

Tests used:
[1] = Stability of peptides in mouse serum; format: in vitro ADME; details: C57BL/6 mouse serum, 10 ppm/reaction, 24 h vs 0 h (without mixing with serum), formic acid precipitation, LC (ZORBAX Eclipse C18) with ELSD; one range printed for both peptides; Figure S6A
Protocol: collected after centrifugation at 13,000 × g for 10 min and stored at -20 ℃. To analyze, we used the ZORBAX Eclipse C18 Column (2.6 × 250 mm, 5 μm) in the Agilent 1200 Infinity LC and kept the column temperature at 40 ℃. Injection volume from samples was 20 μL and for the mobile phase, MS grade water with 0.1% formic acid (‘a’) and MS grade acetonitrile (‘b’) were flowed at the velocity of 1 mL/min. The gradient per sample was ‘a’ (5%)/’b’(95%) for 0 and 5 min, ‘a’ (90%)/’b’(10%) for 10 min, and ‘a’ (40%)/’b’(60%) for 15 min. Agilent 1260 infinity ELSD was used with an LC stack for detection. […]

[2] = target: STrEP-tagged TM4SF5WT (UniProt O14894); experiment: streptavidin pull-down and immunoblot; details: SNU449 cells with STrEP-TM4SF5; 50 kDa band, IP: STrEP lanes
[3] = tested on: SNU761-TM4SF5 cells; experiment: Transwell chemotactic migration of SNU761-TM4SF5 cells with PP2; format: cell-based, human; details: PP2 10 μM, transwell migration 4 h, 10% FBS; Figure 3F and S2B
Protocol: SNU761 cells stably expressing TM4SF5WT were transiently transfected with control siRNA against a scrambled sequence (siControl) or PTP1B (siPTP1B) for 48 h before undergoing the Transwell migration assay for 4 h. Cells were treated with the CPPs before being loaded into the upper chambers. The cells were then analyzed for migration or invasion using Transwell chambers with 8-μm pores (Corning Inc., Corning, NY, USA), where the bottom chamber was filled with 1% BSA alone (in serum-free media) or normal culture media containing 10% FBS as explained previously. After incubation, the number of migrated cells from randomly saved images (n = 10) per condition was counted. The data are graphed as the mean ± standard deviation (SD) for each experimental condition.
Figure S2. TM4SF5-mediated invasion and migration involves PTP1B-regulated c-Src activity. (A) SNU761 cells stably expressing mock or TM4SF5WT were transiently transfected without (No T/F) or with c-Src WT, c-Src SH432, or c-Src SH1 expression constructs for 48 h prior to invasive ECM degradation analysis for 4 h. (B) SNU761 cells stably expressing TM4SF5WT were transiently transfected with control siRNA against a scrambled sequence (siControl) or a sequence in PTP1B (siPTP1B) for 48 h, prior to transwell migration assay for 4 h. […]

[4] = tested on: SNU449Tp cells expressing FAK-KD; experiment: Transwell migration of FAK-KD-expressing SNU449Tp cells with PP2 or PP3; format: cell-based, human; details: SNU449Tp cells infected with FAK-KD adenovirus, 10 μM, transwell migration 12 h, 10% FBS in lower chamber; Figure S1C
[5] = tested on: SNU449T7 cells stably expressing TM4SF5; experiment: Mouse tumor xenograft of TM4SF5-expressing SNU449 cells; format: in vivo, BALB/c-nu/nu mice
Protocol: Mouse tumor xenograft: Four-week-old female or male BALB/c-nu/nu mice were purchased from Orient Co. Ltd (Seungnam, Korea). All animal procedures were performed in accordance with the Seoul National University Laboratory Animal Maintenance Manual and with Institutional Review Board approval (SNU-130311-6-2, SNU-140423-11-7). Mice were housed in a specific pathogen-free room under controlled temperature and humidity. Viable SNU449T7 cells (5 × 10^6) stably expressing TM4SF5 or PLC/PRF/5 cells (10^7) endogenously expressing TM4SF5 were resuspended in sterile PBS and injected subcutaneously into 5-week-old mice (n = 5 or 6, respectively). […] Body weight and tumor volume, which was determined as described previously, were measured daily.
Figure 7 TM4SF5 C-terminal peptides suppress TM4SF5-mediated tumorigenesis and metastasis. […] (E) Degradation of Oregon Green® 488-conjugated gelatin were analyzed for SNU761 cells stably expressing mock (mock) or TM4SF5WT with the 10 μM CPPs treatment for 24 h (mean ± SD values). (F) TM4SF5-null SNU449Cp (Cp) and stably TM4SF5-expressing SNU449Tp (Tp) cells were treated with the 10 μM CPPs for 24 h and then analyzed for transwell migration for 4 h (mean ± SD values in the graph). […] Surface nodules were counted and the mean ± SD values are presented (graph). […]

Chain of STrEP-tagged TM4SF5WT (O14894 whole entry): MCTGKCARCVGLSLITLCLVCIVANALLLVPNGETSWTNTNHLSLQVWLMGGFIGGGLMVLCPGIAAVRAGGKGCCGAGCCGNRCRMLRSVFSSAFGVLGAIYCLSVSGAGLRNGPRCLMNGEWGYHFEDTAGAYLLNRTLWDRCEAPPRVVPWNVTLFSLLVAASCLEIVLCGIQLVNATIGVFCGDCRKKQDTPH

Row | Compound | response (relative band intensity (ImageJ ratio)) [2] | peptide remaining after incubation in mouse serum [1] | other results
1 | C[C@@H](O)[C@H](NC(=O)[C@@H]1CCCN1C(=O)[C@H](CCCNC(=N)N)NC(=O)[C@H](CCCNC(=N)N)NC(=O)[C@H](CCCNC(=N)N)NC(=O)[C@H](CCC(N)=O)NC(=O)[C@H](CCCNC(=N)N)NC(=O)[C@H](CCCNC(=N)N)NC(=O)[C@H](CCCCN)NC(=O)[C@H](CCCCN)NC(=O)[C@@H](N)CCCNC(=N)N)C(=O)N[C@@H](CS)C(=O)N[C@@H](CCCCN)C(=O)N1CCC[C@H]1C(=O)N[C@@H](CC(=O)O)C(=O)N[C@@H](CCCCN)C(=O)NCC(=O)N[C@@H](CCC(N)=O)C(=O)N[C@@H](CCCNC(=N)N)C(=O)N[C@@H](Cc1c[nH]cn1)C(=O)N[C@@H](CC(=O)O)C(=O)O [TCsr] (H-RKKRRQRRRPTCKPDKGQRHD-OH) |  | 44-65% | 
2 | CC(C)(C)n1nc(-c2ccc(Cl)cc2)c2c(N)ncnc21 [PP2] |  |  | chemotactic migration of SNU761-TM4SF5 cells [3]: abolished; residual migration of FAK-KD cells [4]: abolished; TM4SF5-dependent tumor formation in xenograft ([5]; 3 mg/kg subcutaneous injection every day for 10 days, n = 4, Figure S5A): suppressed TM4SF5-dependent tumor formation; effect on xenograft tumor growth, 15-day treatment ([5]; n = 6, 15 days, PP2 3 mg/kg, TCsr 0.111 nmol/g, TcxC 0.095 nmol/g, Figure S5B): suppressive effect
3 | CC[C@H](C)[C@H](NC(=O)[C@@H](NC(=O)[C@H](CS)NC(=O)[C@@H]1CCCN1C(=O)[C@H](CCCNC(=N)N)NC(=O)[C@H](CCCNC(=N)N)NC(=O)[C@H](CCCNC(=N)N)NC(=O)[C@H](CCC(N)=O)NC(=O)[C@H](CCCNC(=N)N)NC(=O)[C@H](CCCNC(=N)N)NC(=O)[C@H](CCCCN)NC(=O)[C@H](CCCCN)NC(=O)[C@@H](N)CCCNC(=N)N)C(C)C)C(=O)N[C@@H](CCSC)C(=O)NCC(=O)N[C@@H](CC(=O)O)C(=O)N[C@@H](CS)C(=O)N[C@@H](CCCNC(=N)N)C(=O)N[C@@H](CCCCN)C(=O)N[C@@H](CCCCN)C(=O)N[C@@H](CCC(N)=O)C(=O)N[C@@H](CC(=O)O)C(=O)N[C@H](C(=O)N1CCC[C@H]1C(=O)N[C@@H](Cc1c[nH]cn1)C(=O)O)[C@@H](C)O [TcxC] (H-RKKRRQRRRPCVIMGDCRKKQDTPH-OH) |  | 44-65% | 

More lines, main results first:

Row | response (relative band intensity (ImageJ ratio)) [2] | Compound | peptide remaining after incubation in mouse serum [1] | other results
4 | 1 | c-Src-SH321 Y419F |  | 
5 | 0 | c-Src-SH321 Y419F; Y530F |  | 
6 | 0 | c-Src-SH321 Y530F |  | 
